Reference: PubChem BioAssay (NCI)
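Following 48 hours of exposure in 96-well plates, responses at five concentrations were used to interpolate endpoints linearly. GI50: concentration for 50% inhibition of growth. TGI marks complete inhibition of growth.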

Assays:
Test in all cases: NCI-60 cell line screen, 48 h
[1] = test system: OVCAR-4 ovarian
[2] = test system: MDA-MB-231 breast
[3] = test system: CCRF-CEM leukemia
[4] = test system: SR leukemia
[5] = test system: MCF7 breast
[6] = test system: KM12 colon
[7] = test system: SK-MEL-5 melanoma
[8] = test system: T-47D breast
[9] = test system: HCC-2998 colon
[10] = test system: HT29 colon

SMILES	GI50 [1] [µM]	TGI [1] [µM]	GI50 [2] [µM]	TGI [2] [µM]	GI50 [3] [µM]	TGI [3] [µM]	GI50 [4] [µM]	TGI [4] [µM]	GI50 [5] [µM]	TGI [5] [µM]	GI50 [6] [µM]	TGI [6] [µM]	GI50 [7] [µM]	TGI [7] [µM]	GI50 [8] [µM]	TGI [8] [µM]	GI50 [9] [µM]	TGI [9] [µM]	GI50 [10] [µM]	TGI [10] [µM]
COc1cccc(CCC2CCCN(c3cc(C)nc(N)n3)C2)c1 (centres undefined)	0.692	19.3	1.2	11.5	0.34	22.2	0.236	4.09	0.292	11.9	0.315	12.4	0.333	1.32	0.238	8.26	1.54	7.52	0.28	1.49
COc1cc2nccc(Oc3ccc(NC(=O)NC4CC4)c(Cl)c3)c2cc1C(N)=O	12.2	> 100	11.5	43.8	62.6	> 100	30.5	> 100	36.2	> 100	5.5	> 100	40	> 100	14.4	> 100	> 100	> 100	> 100	> 100
COc1c(O)c(OC)c2oc(-c3ccc(O)c(O)c3)c(OC)c(=O)c2c1O		> 100		> 100		> 100		> 100		34		> 100		50.8		33		98		> 100
COc1ccc(N=Cc2c(O)ccc3c2oc2cc(Cl)c(O)c(Cl)c23)cc1	16.3	> 100	14.7	48.4	4.5	31.8	10.9	51.7	7.7	44.1	7.91	21.3	10.5	27.7	7.65	46.4	15	29.3	16.2	37.8
O=C(COc1ccc(/C=C2\COc3ccccc3C2=O)cc1)Nc1nccs1	20.5	68.5	17.8	60	1.61	6.39	1.31	3.23	3.92	14.2	3.28	10.5	12.8	26.7	16.1	38.8	0.828	3.26	3.7	12.9
CSC1=Nc2c(c(C)c(-c3ccccc3)n2CCCN2CCCCC2)C2=NC(=O)C[C@H](C)N12	3.21	37.7	2.59	> 30.9	2.68	10.2	16.7	> 100	2.72	11.3	3.26	12.5	1.99	4.64	2.28	8.53	3.18	12.7	2.38	10.9
CCCCCCCC/C=C/CCCCCCCC1=NC(C)(C)CN1CC(C)O (centres undefined)	3.08	11.1	1.66	3.43	2.24	5.97	0.7	2.65	1.85	3.62	1.99	3.98	6.39	16.9	2.03	4.58	4.68	9.45	1.59	3.09
COC(=O)/C(=N\NC(N)=O)C(C(=O)C(=O)Nc1ccccc1OC)c1nc2ccc([N+](=O)[O-])cc2[nH]c1=O (centres undefined)		> 100		> 100		> 100		> 100		> 100		> 100		> 100		> 100		> 100		> 100
Cc1ccc(Cl)cc1Nc1nc(C(F)(F)F)ccc1C(=O)N/N=C/c1cccnc1	1.33	15.4	2.08	17.4	4.14	> 100	0.148		2.45	13.9	3.19	11.8	2.5	10.3	3.16	20.8	2.03	11.1	5.73	20.7
C=C1CC2CCCC12C=O (centres undefined)		> 10		> 10		> 10		> 10		> 10		> 10		> 10		> 10		> 10		> 10
